Data taken from PubChem BioAssay AID1259407 (Chemical Carcinogenesis Research Information System (CCRIS), 2018).
Active and inactive are the calls of the source. How the calls were made is not given here.

System: CCRIS mutagenicity, Ames/micronucleus/aberration tests
Assay: CCRIS mutagenicity studies
[1] = Test System: AMES SALMONELLA TYPHIMURIUM, Strain/Indicator: TA98, Metabolic Activation: NONE, Method: PREINCUBATION
[2] = Test System: AMES SALMONELLA TYPHIMURIUM, Strain/Indicator: TA98, Metabolic Activation: NONE, Method: STANDARD PLATE
[3] = Test System: AMES SALMONELLA TYPHIMURIUM, Strain/Indicator: TA98, Metabolic Activation: RAT, LIVER, S-9, AROCLOR 1254, Method: STANDARD PLATE
[4] = Test System: AMES SALMONELLA TYPHIMURIUM, Strain/Indicator: TA100, Metabolic Activation: HAMSTER, LIVER, S-9, AROCLOR 1254 (10%), Method: PREINCUBATION
[5] = Test System: AMES SALMONELLA TYPHIMURIUM, Strain/Indicator: TA100, Metabolic Activation: NONE, Method: PREINCUBATION
[6] = Test System: AMES SALMONELLA TYPHIMURIUM, Strain/Indicator: TA100, Metabolic Activation: NONE, Method: STANDARD PLATE
[7] = Test System: AMES SALMONELLA TYPHIMURIUM, Strain/Indicator: TA100, Metabolic Activation: RAT, LIVER, S-9, AROCLOR 1254 (10%), Method: PREINCUBATION
[8] = Test System: AMES SALMONELLA TYPHIMURIUM, Strain/Indicator: TA100, Metabolic Activation: RAT, LIVER, S-9, AROCLOR 1254, Method: STANDARD PLATE
[9] = Test System: AMES SALMONELLA TYPHIMURIUM, Strain/Indicator: TA1535, Metabolic Activation: NONE, Method: PREINCUBATION
[10] = Test System: AMES SALMONELLA TYPHIMURIUM, Strain/Indicator: TA1535, Metabolic Activation: NONE, Method: STANDARD PLATE
[11] = Test System: AMES SALMONELLA TYPHIMURIUM, Strain/Indicator: TA1535, Metabolic Activation: RAT, LIVER, S-9, AROCLOR 1254, Method: STANDARD PLATE
[12] = Test System: AMES SALMONELLA TYPHIMURIUM, Strain/Indicator: TA1537, Metabolic Activation: HAMSTER, LIVER, S-9, AROCLOR 1254 (10%), Method: PREINCUBATION
[13] = Test System: AMES SALMONELLA TYPHIMURIUM, Strain/Indicator: TA1537, Metabolic Activation: NONE, Method: PREINCUBATION
[14] = Test System: AMES SALMONELLA TYPHIMURIUM, Strain/Indicator: TA1537, Metabolic Activation: NONE, Method: STANDARD PLATE
[15] = Test System: AMES SALMONELLA TYPHIMURIUM, Strain/Indicator: TA1537, Metabolic Activation: RAT, LIVER, S-9, AROCLOR 1254 (10%), Method: PREINCUBATION
[16] = Test System: AMES SALMONELLA TYPHIMURIUM, Strain/Indicator: TA1537, Metabolic Activation: RAT, LIVER, S-9, AROCLOR 1254, Method: STANDARD PLATE
[17] = Test System: AMES SALMONELLA TYPHIMURIUM, Strain/Indicator: TA98, Metabolic Activation: HAMSTER, LIVER, S-9, AROCLOR 1254 (10%), Method: PREINCUBATION
[18] = Test System: AMES SALMONELLA TYPHIMURIUM, Strain/Indicator: TA98, Metabolic Activation: RAT, LIVER, S-9, AROCLOR 1254 (10%), Method: PREINCUBATION
[19] = Test System: AMES SALMONELLA TYPHIMURIUM, Strain/Indicator: TA1535, Metabolic Activation: HAMSTER, LIVER, S-9, AROCLOR 1254 (10%), Method: PREINCUBATION
[20] = Test System: AMES SALMONELLA TYPHIMURIUM, Strain/Indicator: TA1535, Metabolic Activation: RAT, LIVER, S-9, AROCLOR 1254 (10%), Method: PREINCUBATION

| SMILES | mutagenic call [1] | mutagenic call [2] | mutagenic call [3] | mutagenic call [4] | mutagenic call [5] | mutagenic call [6] | mutagenic call [7] | mutagenic call [8] | mutagenic call [9] | mutagenic call [10] | mutagenic call [11] | mutagenic call [12] | mutagenic call [13] | mutagenic call [14] | mutagenic call [15] | mutagenic call [16] | mutagenic call [17] | mutagenic call [18] | mutagenic call [19] | mutagenic call [20] | other results |
| --- | --- | --- | --- | --- | --- | --- | --- | --- | --- | --- | --- | --- | --- | --- | --- | --- | --- | --- | --- | --- | --- |
| NCCNCCNCCNCCN | active; positive | inactive; negative | inactive; negative | active; positive | active; positive | inactive; negative | active; positive | inactive; negative | inactive; negative | inactive; negative | inactive; negative | inactive; negative | inactive; negative | inactive; negative | inactive; negative | inactive; negative | – | – | – | – | mutagenic call (Test System: AMES SALMONELLA TYPHIMURIUM, Strain/Indicator: TA98, Metabolic Activation: RAT, LIVER, S-9, PCB, Method: PREINCUBATION): inactive; negative; mutagenic call (Test System: AMES SALMONELLA TYPHIMURIUM, Strain/Indicator: TA100, Metabolic Activation: RAT, LIVER, S-9, PCB, Method: PREINCUBATION): inactive; negative; mutagenic call (Test System: AMES SALMONELLA TYPHIMURIUM, Strain/Indicator: TA1538, Metabolic Activation: NONE, Method: STANDARD PLATE): inactive; negative; mutagenic call (Test System: AMES SALMONELLA TYPHIMURIUM, Strain/Indicator: TA1538, Metabolic Activation: RAT, LIVER, S-9, AROCLOR 1254, Method: STANDARD PLATE): inactive; negative; mutagenic call (Test System: CHINESE HAMSTER OVARY, Strain/Indicator: CHO (HGPRT)/6-THIOGUANINE, Metabolic Activation: NONE): inactive; negative; mutagenic call (Test System: CHINESE HAMSTER OVARY, Strain/Indicator: CHO (HGPRT)/6-THIOGUANINE, Metabolic Activation: RAT, LIVER, S-9, AROCLOR 1254): inactive; negative; mutagenic call (Test System: UDS RAT HEPATOCYTES, Strain/Indicator: THY INCORP, Metabolic Activation: NONE, Method: SCINTILLATION SPECTROMETRY): active; positive |
| NC(=O)N(CC(=O)O)N=O | – | – | – | – | – | – | – | – | – | – | – | – | – | – | – | – | – | – | – | – | mutagenic call (Test System: E. COLI B, Strain/Indicator: H/R30R, Metabolic Activation: NONE): active; positive; mutagenic call (Test System: E. COLI B, Strain/Indicator: HS30R, Metabolic Activation: NONE): active; positive |
| Cc1ccc(Br)cc1 | inactive; negative | – | – | inactive; negative | inactive; negative | – | inactive; negative | – | inactive; negative | – | – | – | inactive; negative | – | – | – | inactive; negative | inactive; negative | inactive; negative | inactive; negative | mutagenic call (Test System: AMES SALMONELLA TYPHIMURIUM, Strain/Indicator: TA97, Metabolic Activation: HAMSTER, LIVER, S-9, AROCLOR 1254 (10%), Method: PREINCUBATION): inactive; negative; mutagenic call (Test System: AMES SALMONELLA TYPHIMURIUM, Strain/Indicator: TA97, Metabolic Activation: HAMSTER, LIVER, S-9, AROCLOR 1254 (30%), Method: PREINCUBATION): inactive; negative; mutagenic call (Test System: AMES SALMONELLA TYPHIMURIUM, Strain/Indicator: TA97, Metabolic Activation: NONE, Method: PREINCUBATION): inactive; negative; mutagenic call (Test System: AMES SALMONELLA TYPHIMURIUM, Strain/Indicator: TA97, Metabolic Activation: RAT, LIVER, S-9, AROCLOR 1254 (10%), Method: PREINCUBATION): inactive; negative; mutagenic call (Test System: AMES SALMONELLA TYPHIMURIUM, Strain/Indicator: TA97, Metabolic Activation: RAT, LIVER, S-9, AROCLOR 1254 (30%), Method: PREINCUBATION): inactive; negative; mutagenic call (Test System: AMES SALMONELLA TYPHIMURIUM, Strain/Indicator: TA98, Metabolic Activation: HAMSTER, LIVER, S-9, AROCLOR 1254 (30%), Method: PREINCUBATION): inactive; negative; mutagenic call (Test System: AMES SALMONELLA TYPHIMURIUM, Strain/Indicator: TA98, Metabolic Activation: RAT, LIVER, S-9, AROCLOR 1254 (30%), Method: PREINCUBATION): inactive; negative; mutagenic call (Test System: AMES SALMONELLA TYPHIMURIUM, Strain/Indicator: TA100, Metabolic Activation: HAMSTER, LIVER, S-9, AROCLOR 1254 (30%), Method: PREINCUBATION): inactive; negative; mutagenic call (Test System: AMES SALMONELLA TYPHIMURIUM, Strain/Indicator: TA100, Metabolic Activation: RAT, LIVER, S-9, AROCLOR 1254 (30%), Method: PREINCUBATION): inactive; negative; mutagenic call (Test System: AMES SALMONELLA TYPHIMURIUM, Strain/Indicator: TA1535, Metabolic Activation: HAMSTER, LIVER, S-9, AROCLOR 1254 (30%), Method: PREINCUBATION): inactive; negative; mutagenic call (Test System: AMES SALMONELLA TYPHIMURIUM, Strain/Indicator: TA1535, Metabolic Activation: RAT, LIVER, S-9, AROCLOR 1254 (30%), Method: PREINCUBATION): inactive; negative; mutagenic call (Test System: AMES SALMONELLA TYPHIMURIUM, Strain/Indicator: TA1537, Metabolic Activation: HAMSTER, LIVER, S-9, AROCLOR 1254 (30%), Method: PREINCUBATION): inactive; negative; mutagenic call (Test System: AMES SALMONELLA TYPHIMURIUM, Strain/Indicator: TA1537, Metabolic Activation: RAT, LIVER, S-9, AROCLOR 1254 (30%), Method: PREINCUBATION): inactive; negative |
| CN(C)CCCN1c2ccccc2Sc2ccc(Cl)cc21 | inactive; negative | inactive; negative | inactive; negative | inactive; negative | inactive; negative | inactive; negative | inactive; negative | inactive; negative | inactive; negative | inactive; negative | inactive; negative | inactive; negative | inactive; negative | inactive; negative | active; positive | inactive; negative | inactive; negative | inactive; negative | inactive; negative | inactive; negative | mutagenic call (End Point: IN VITRO CHROMOSOMAL ABERRATIONS, Test System: CHINESE HAMSTER OVARY CELLS, Metabolic Activation: NONE): inactive; negative; mutagenic call (End Point: IN VITRO CHROMOSOMAL ABERRATIONS, Test System: CHINESE HAMSTER OVARY CELLS, Metabolic Activation: RAT, LIVER, S-9, AROCLOR 1254): inactive; negative; mutagenic call (Test System: AMES SALMONELLA TYPHIMURIUM, Strain/Indicator: TA98, Metabolic Activation: NONE, Method: SPOT TEST): inactive; negative; mutagenic call (Test System: CHINESE HAMSTER V-79, Strain/Indicator: V-79/6-THIOGUANINE, Metabolic Activation: NONE): inactive; negative; mutagenic call (Test System: CHINESE HAMSTER V-79, Strain/Indicator: V-79/OUABAIN, Metabolic Activation: NONE): inactive; negative |
